Source: patent US9192635B2

Test: Hydrogen peroxide retention after desiccation and rehydration (peroxide check strips)
Type: physicochemical
Conditions: 1-10 g extract in 20 ml 35% hydrogen peroxide, heated at 80° C. to 5 ml, rehydrated; colorimetric strips

Oc1ccc(C=Cc2cc(O)cc(O)c2)cc1 [resveratrol, Resveratrol]
peroxide retention capability: relatively less ability to form stable perhydrates
